# ChEMBL document CHEMBL3400056, “Novel thiazolo[3,2-b]-1,2,4-triazoles derived from naproxen with analgesic/anti-inflammatory properties: Synthesis, biological evaluation and molecular modeling studies” (Bioorg Med Chem, 2015)
# Tested on: Mus musculus
# Test: Analgesic activity in Swiss albino mouse assessed as latancy of withdrawing tail at 50 mg/kg, po measured after 2 hrs by tail flick test relative to control
# Format: functional
# Conditions: not given
row,Structure (SMILES),MPE [%]
1,COc1ccc2cc(C(C)c3nc4s/c(=C\c5cccc(OCc6ccccc6)c5)c(=O)n4n3)ccc2c1 (configuration not stated),24.8
2,COc1ccc2cc(C(C)c3nc4s/c(=C\c5cccs5)c(=O)n4n3)ccc2c1 (configuration not stated),10.5
3,COc1ccc2cc(C(C)c3nc4s/c(=C\c5ccc(OC(C)=O)cc5)c(=O)n4n3)ccc2c1 (configuration not stated),23.3
4,COc1ccc2cc(C(C)c3nc4s/c(=C\c5ccc6ccccc6c5)c(=O)n4n3)ccc2c1 (configuration not stated),30
5,COc1ccc2c3c1O[C@H]1C(=O)CC[C@@]4(O)[C@@H](C2)N(C)CC[C@]314 [OXYCODONE],63.3

# Tested on: Mus musculus
# Test: Gastrointestinal toxicity in Swiss albino mouse assessed as ulcer index at 100 mg/kg, po measured after 2 hrs
# Format: organism-based
# Design: dose 100 mg/kg, route oral
# Conditions: in vivo
row,Structure (SMILES),UI
1,COc1ccc2cc(C(C)c3nc4s/c(=C\c5cccc(OCc6ccccc6)c5)c(=O)n4n3)ccc2c1 (configuration not stated),2.9
2,COc1ccc2cc(C(C)c3nc4s/c(=C\c5cccs5)c(=O)n4n3)ccc2c1 (configuration not stated),2.3
3,COc1ccc2cc(C(C)c3nc4s/c(=C\c5ccc(OC(C)=O)cc5)c(=O)n4n3)ccc2c1 (configuration not stated),2.7
4,COc1ccc2cc(C(C)c3nc4s/c(=C\c5ccc6ccccc6c5)c(=O)n4n3)ccc2c1 (configuration not stated),3.4
5,COc1ccc2c3c1O[C@H]1C(=O)CC[C@@]4(O)[C@@H](C2)N(C)CC[C@]314 [OXYCODONE],1.5

# Tested on: Mus musculus
# Test: Acute toxicity in Swiss albino mouse assessed as mortality at 50 to 100 mg/kg, po measured after 6 hrs to 14 days
# Format: organism-based
# Design: dose 50-100 mg/kg, route oral
# Conditions: in vivo
row,Structure (SMILES),Activity
1,COc1ccc2cc(C(C)c3nc4s/c(=C\c5cccc(OCc6ccccc6)c5)c(=O)n4n3)ccc2c1 (configuration not stated),Non-toxic
2,COc1ccc2cc(C(C)c3nc4s/c(=C\c5cccs5)c(=O)n4n3)ccc2c1 (configuration not stated),Non-toxic
3,COc1ccc2cc(C(C)c3nc4s/c(=C\c5ccc(OC(C)=O)cc5)c(=O)n4n3)ccc2c1 (configuration not stated),Non-toxic
4,COc1ccc2cc(C(C)c3nc4s/c(=C\c5ccc6ccccc6c5)c(=O)n4n3)ccc2c1 (configuration not stated),Non-toxic

# Tested on: Mus musculus
# Test: Antiinflammatory activity in Swiss albino mouse assessed as inhibition of carrageenan-induced paw edema at 100 mg/kg, po administered 1 hr prior to carrageenan challenge measured after 2 hrs relative to control
# Format: functional
# Design: scale not given: the % may be the effect or the level left
# Conditions: not given
row,Structure (SMILES),Activity [%]
1,COc1ccc2cc(C(C)c3nc4s/c(=C\c5cccc(OCc6ccccc6)c5)c(=O)n4n3)ccc2c1 (configuration not stated),34.4
2,COc1ccc2cc(C(C)c3nc4s/c(=C\c5cccs5)c(=O)n4n3)ccc2c1 (configuration not stated),21.2
3,COc1ccc2cc(C(C)c3nc4s/c(=C\c5ccc(OC(C)=O)cc5)c(=O)n4n3)ccc2c1 (configuration not stated),33.6
4,COc1ccc2cc(C(C)c3nc4s/c(=C\c5ccc6ccccc6c5)c(=O)n4n3)ccc2c1 (configuration not stated),44.9
5,COc1ccc2c3c1O[C@H]1C(=O)CC[C@@]4(O)[C@@H](C2)N(C)CC[C@]314 [OXYCODONE],3.9

# Tested on: Mus musculus
# Test: Analgesic activity in Swiss albino mouse assessed as time of licking paws at 50 mg/kg, po measured after 2 hrs by tail flick test relative to control
# Format: functional
# Conditions: not given
row,Structure (SMILES),MPE [%]
1,COc1ccc2cc(C(C)c3nc4s/c(=C\c5cccc(OCc6ccccc6)c5)c(=O)n4n3)ccc2c1 (configuration not stated),21.5
2,COc1ccc2cc(C(C)c3nc4s/c(=C\c5cccs5)c(=O)n4n3)ccc2c1 (configuration not stated),16.2
3,COc1ccc2cc(C(C)c3nc4s/c(=C\c5ccc(OC(C)=O)cc5)c(=O)n4n3)ccc2c1 (configuration not stated),24.9
4,COc1ccc2cc(C(C)c3nc4s/c(=C\c5ccc6ccccc6c5)c(=O)n4n3)ccc2c1 (configuration not stated),17.7
5,COc1ccc2c3c1O[C@H]1C(=O)CC[C@@]4(O)[C@@H](C2)N(C)CC[C@]314 [OXYCODONE],52.9

# Tested on: Mus musculus
# Test: Analgesic activity in Swiss albino mouse assessed as latancy of withdrawing tail at 100 mg/kg, po measured after 2 hrs by tail flick test relative to control
# Format: functional
# Conditions: not given
row,Structure (SMILES),MPE [%]
1,COc1ccc2cc(C(C)c3nc4s/c(=C\c5cccc(OCc6ccccc6)c5)c(=O)n4n3)ccc2c1 (configuration not stated),22.3
2,COc1ccc2cc(C(C)c3nc4s/c(=C\c5cccs5)c(=O)n4n3)ccc2c1 (configuration not stated),24.9
3,COc1ccc2cc(C(C)c3nc4s/c(=C\c5ccc(OC(C)=O)cc5)c(=O)n4n3)ccc2c1 (configuration not stated),18.2
4,COc1ccc2cc(C(C)c3nc4s/c(=C\c5ccc6ccccc6c5)c(=O)n4n3)ccc2c1 (configuration not stated),32.2
5,COc1ccc2c3c1O[C@H]1C(=O)CC[C@@]4(O)[C@@H](C2)N(C)CC[C@]314 [OXYCODONE],66.9

# Tested on: Mus musculus
# Test: Antiinflammatory activity in Swiss albino mouse assessed as inhibition of carrageenan-induced paw edema at 50 mg/kg, po administered 1 hr prior to carrageenan challenge measured after 2 hrs relative to control
# Format: functional
# Design: scale not given: the % may be the effect or the level left
# Conditions: not given
row,Structure (SMILES),Activity [%]
1,COc1ccc2cc(C(C)c3nc4s/c(=C\c5cccc(OCc6ccccc6)c5)c(=O)n4n3)ccc2c1 (configuration not stated),37.9
2,COc1ccc2cc(C(C)c3nc4s/c(=C\c5cccs5)c(=O)n4n3)ccc2c1 (configuration not stated),21.7
3,COc1ccc2cc(C(C)c3nc4s/c(=C\c5ccc(OC(C)=O)cc5)c(=O)n4n3)ccc2c1 (configuration not stated),36.2
4,COc1ccc2cc(C(C)c3nc4s/c(=C\c5ccc6ccccc6c5)c(=O)n4n3)ccc2c1 (configuration not stated),37.9
5,COc1ccc2c3c1O[C@H]1C(=O)CC[C@@]4(O)[C@@H](C2)N(C)CC[C@]314 [OXYCODONE],0.9

# Tested on: Mus musculus
# Test: Acute toxicity in Swiss albino mouse assessed as weight loss at 50 to 100 mg/kg, po measured up to 14 days
# Format: organism-based
# Design: dose 50-100 mg/kg, route oral
# Conditions: in vivo, 336 h
row,Structure (SMILES),Activity
1,COc1ccc2cc(C(C)c3nc4s/c(=C\c5cccc(OCc6ccccc6)c5)c(=O)n4n3)ccc2c1 (configuration not stated),Non-toxic
2,COc1ccc2cc(C(C)c3nc4s/c(=C\c5cccs5)c(=O)n4n3)ccc2c1 (configuration not stated),Non-toxic
3,COc1ccc2cc(C(C)c3nc4s/c(=C\c5ccc(OC(C)=O)cc5)c(=O)n4n3)ccc2c1 (configuration not stated),Non-toxic
4,COc1ccc2cc(C(C)c3nc4s/c(=C\c5ccc6ccccc6c5)c(=O)n4n3)ccc2c1 (configuration not stated),Non-toxic

# Tested on: Mus musculus
# Test: Analgesic activity in Swiss albino mouse assessed as time of licking paws at 100 mg/kg, po measured after 2 hrs by tail flick test relative to control
# Format: functional
# Conditions: not given
row,Structure (SMILES),MPE [%]
1,COc1ccc2cc(C(C)c3nc4s/c(=C\c5cccc(OCc6ccccc6)c5)c(=O)n4n3)ccc2c1 (configuration not stated),19.2
2,COc1ccc2cc(C(C)c3nc4s/c(=C\c5cccs5)c(=O)n4n3)ccc2c1 (configuration not stated),21.3
3,COc1ccc2cc(C(C)c3nc4s/c(=C\c5ccc(OC(C)=O)cc5)c(=O)n4n3)ccc2c1 (configuration not stated),19.9
4,COc1ccc2cc(C(C)c3nc4s/c(=C\c5ccc6ccccc6c5)c(=O)n4n3)ccc2c1 (configuration not stated),30.3
5,COc1ccc2c3c1O[C@H]1C(=O)CC[C@@]4(O)[C@@H](C2)N(C)CC[C@]314 [OXYCODONE],52.9

# Tested on: Mus musculus
# Test: Acute toxicity in Swiss albino mouse assessed as behavioral changes at 50 to 100 mg/kg, po measured up to 14 days
# Format: organism-based
# Design: dose 50-100 mg/kg, route oral
# Conditions: in vivo, 336 h
row,Structure (SMILES),Activity
1,COc1ccc2cc(C(C)c3nc4s/c(=C\c5cccc(OCc6ccccc6)c5)c(=O)n4n3)ccc2c1 (configuration not stated),Non-toxic
2,COc1ccc2cc(C(C)c3nc4s/c(=C\c5cccs5)c(=O)n4n3)ccc2c1 (configuration not stated),Non-toxic
3,COc1ccc2cc(C(C)c3nc4s/c(=C\c5ccc(OC(C)=O)cc5)c(=O)n4n3)ccc2c1 (configuration not stated),Non-toxic
4,COc1ccc2cc(C(C)c3nc4s/c(=C\c5ccc6ccccc6c5)c(=O)n4n3)ccc2c1 (configuration not stated),Non-toxic

# Tested on: Mus musculus
# Test: Gastrointestinal toxicity in Swiss albino mouse assessed as ulcer index at 50 mg/kg, po measured after 2 hrs
# Format: organism-based
# Design: dose 50 mg/kg, route oral
# Conditions: in vivo
row,Structure (SMILES),UI
1,COc1ccc2cc(C(C)c3nc4s/c(=C\c5cccc(OCc6ccccc6)c5)c(=O)n4n3)ccc2c1 (configuration not stated),2.9
2,COc1ccc2cc(C(C)c3nc4s/c(=C\c5cccs5)c(=O)n4n3)ccc2c1 (configuration not stated),2.6
3,COc1ccc2cc(C(C)c3nc4s/c(=C\c5ccc(OC(C)=O)cc5)c(=O)n4n3)ccc2c1 (configuration not stated),2.9
4,COc1ccc2cc(C(C)c3nc4s/c(=C\c5ccc6ccccc6c5)c(=O)n4n3)ccc2c1 (configuration not stated),2
5,COc1ccc2c3c1O[C@H]1C(=O)CC[C@@]4(O)[C@@H](C2)N(C)CC[C@]314 [OXYCODONE],1.5
